Measurements: patent publication US5795857A, “Mimetic insect pyrokinin analogs for insect control” (The United States of America as represented by the …, priority 1996, dated 1998)

Test system: virgin females of Heliothis virescens
Test: Pheromonotropic assay (injection)
Format: in vivo
Experimental: Pupae of H. virescens were obtained from a laboratory colony maintained at the Insect Attractants, Behavior and Basic Biology Research Laboratory, USDA-ARS, in Gainesville, Fla. The pupae were separated by sex and the males were discarded. After eclosion, the females were held in 4-1 cages and provided with cotton wicks soaked with 5% sucrose solution. The insects were held at 25°±2° C, 65±3% relative humidity with a 12:12 (L:D) photoperiod. Virgin females were used for bioassays 2 and 3 days after eclosion during the 7th-8th hour of the photophase when endogenous levels of pheromone are very low (Abernathy, 1995, Regulation of sex pheromone production and oviposition in virgin females of noctuid moths, doctoral dissertation, University of Florida, Gainesville, Fla., pp. 1-107).
Pheromone biosynthesis neuropeptide from H. zea (Hez--PBAN) and the carboranyl pseudopeptide Cbe--Thr--Pro--Arg--Leu--NH2 were dissolved in physiological saline (Christensen et al., 1991, Proc. Natl. Acad. Sci. USA, 88:4971-4975). Female H. virescens insects were injected through the side of the third abdominal segment using a 26-ga needle with 20 μl of the above solutions. Each female received a dose of 0.01, 0.03, 0.1, 0.3, 1, 3, 10, 30, 100 or 300 pmol. After 1 h of incubation, the terminal abdominal segments, which contain the pheromone gland, were excised and placed in 10 μl of hexane containing 10 ng each of internal standards (octadecane and nonadecane) used for quantitation and calculation of relative retention indices. The pheromone gland extracts were analyzed for the amount of (Z)-11-hexadecenal (Z11-16:AL), the major sex pheromone component of H. virescens (Klun et al., 1980, J. Chem. Ecol., 6:165-175) by capillary gas chromatography. Hewlett-Packard 5890 gas chromatographs were equipped with splitless injectors, flame ionization detectors, and 30 m×0.25 mm (i.d.) fused silica "SPB 10" (polar) or "SPB1" (apolar) columns (Supelco). Conditions of chromatography were as follows: initial temperature=60° C.; injector operated in the splitless mode for 0.5 min; oven temperature increased by 30° C./min after 1 min; final temperature=190° C. ("SPB10") or 200° C. ("SPB1"); helium carrier gas at a linear flow velocity of 18 cm/s. A Nelson Analytical 3000° acquisition system (Cupertino, Calif.) was used to collect and analyze the data (Teal et al., 1989, Proc. Natl. Acad. Sci. USA, 86:2488-2492).
After the dose response of Hez--PBAN was completed, the […] dose was chosen to use for comparison with the carboranyl pseudopeptide assayed here. Insects were also injected with saline alone as a control. The pseudopeptide was prepared by dilution with saline as described above. Based on the dose-response for the activity of Hez--PBAN, […] were chosen to assess the pheromonotropic activity of the carboranyl pseudopeptide. Females were injected with 20 μl containing 0.01, 0.03, 0.1, 0.3, 1, 3, 10, 30, 100, or 300 pmol. Each bioassay consisted of one dose of several different peptides along with saline and Hez--PBAN controls. The amount of pheromone present in extracts of the pheromone glands of females from each group was compared with that produced by females injected with 5 pmol of Hez--PBAN during that particular bioassay. After all the bioassays were completed, the amount of pheromone produced by each insect was calculated as a percentage of the amount of pheromone produced by females treated with Hez--PBAN. Data were analyzed using one-way ANOVA and t-test with "STATVIEW" software. Variability was reported as SEM.
The pheromonotropic activity of Hez--PBAN, Lom--MT--II and [6--Pha--Ala^0 ]Lom--MT--II was first determined by a series of injection bioassays. Peptides were dissolved in physiological saline (Christensen et al., ibid) and diluted to concentrations of 0.003, 0.01, 0.03, 0.1, 0.3, 1.0, 3.0 and 10.0 pmol/μl. Insects were injected through the side of the 3rd abdominal segment using a 26 ga. needle with 20 μl of the above solutions. […]

In the case of Cbe--Thr--Pro--Arg--Leu--NH2, the “potency relative to 33-membered HezPBAN, injection” value (H. virescens) is reported as 10 fold, the “ED50, pheromone production following injection” value (H. virescens females, FIG. 3) is reported as 0.1 pmoles/female and the “ED50, pheromone production via injection” value (H. virescens females, glands extracted 60 min after injection) is reported as 0.1 pmol. For the same substance, the “dose eliciting a 100% response, injection” value (H. virescens, FIG. 3) was 2.5 pmoles/female, the “potency relative to 33-membered HezPBAN, injection” value (H. virescens, listed as carboranyl analog) was “equipotent” and the “Maximal Response via injection (dose)” value (maximal pheromone production relative to 5 pmoles PBAN via injection) was 2.5 pmol.
